Data reported in patent US20230148599A1, “FUNGICIDAL MIXTURES CONTAINING PYRAZOLE DERIVATIVES” (FMC Corporation, priority 2020, published 2023).

How the values were obtained:
Type in all cases: in vivo
Settings in all cases: 50 ppm, 100 = 100% disease control, 0 = no control
Septoria tritici = assay: Test A: wheat leaf blotch, preventive spray on wheat seedlings
Source text: (§1) General protocol for preparing test suspensions for Tests A-F: the test compounds were first dissolved in acetone in an amount equal to 3% of the final volume and then suspended at the desired concentration (in ppm) in acetone and purified water (50/50 mix by volume) containing 250 ppm of the surfactant PEG400 (polyhydric alcohol esters). The resulting test suspensions were then used in Tests A-F.
(§2) The test solution was sprayed to the point of run-off on wheat seedlings. The following day the seedlings were inoculated with a spore suspension of Septoria tritici (the causal agent of wheat leaf blotch) and incubated in a saturated atmosphere at 24° C. for 48 h, and then moved to a growth chamber at 20° C. for 17 days, after which time disease ratings were made.
(§3) A rating of 100 indicates 100% disease control and a rating of 0 indicates no disease control (relative to the controls). A dash (−) indicates the compound was not tested.

[1] = system: Puccinia recondita f. sp. tritici; assay: Test B: wheat leaf rust, preventive spray on wheat seedlings
Source text: as §1
as §2, with “Puccinia recondita f. sp.” for “Septoria”, “rust)” for “blotch)”, “20°” for “24°”, “24” for “48”, “7” for “17”
as §3

Phakopsora pachyrhizi = assay: Test D: Asian soybean rust, preventive spray on soybean seedlings
Source text: as §1
The test solution was sprayed to the point of run-off on soybean seedlings. The following day the seedlings were inoculated with a spore suspension of Phakopsora pachyrhizi (the causal agent of Asian soybean rust) and incubated in a saturated atmosphere at 22° C. for 24 h and then moved to a growth chamber at 22° C. for 8 days, after which time visual disease ratings were made.
as §3

Botrytis cinerea = assay: Test E: tomato Botrytis, preventive spray on tomato seedlings
Source text: as §1
(§4) The test suspension was sprayed to the point of run-off on tomato seedlings. The following day the seedlings were inoculated with a spore suspension of Botrytis cinerea (the causal agent of tomato Botrytis) and incubated in a saturated atmosphere at 20° C. for 48 h, and then moved to a growth chamber at 24° C. for 3 days, after which time visual disease ratings were made.
as §3

Alternaria solani = assay: Test F: tomato early blight, preventive spray on tomato seedlings
Source text: as §1
as §4, with “Alternaria solani” for “Botrytis cinerea”, “early blight)” for “Botrytis)”, “27°” for “20°”, “20°” for “24°”
as §3

[2] = system: Blumeria graminis f. sp. tritici; assay: Test C: wheat powdery mildew, preventive spray on wheat seedlings
Source text: as §1
The test suspension was sprayed to the point of run-off on wheat seedlings. The following day the seedlings were inoculated with a spore dust of Blumeria graminis f. sp. tritici, (also known as Erysiphe graminis f. sp. tritici, the causal agent of wheat powdery mildew) and incubated in a growth chamber at 20° C. for 8 days, after which time visual disease ratings were made.
as §3

SMILES | pest or weed control at 50 ppm (Septoria tritici; Zymoseptoria tritici, 456 h, read-out: Test A disease control rating) [%] | pest or weed control at 50 ppm ([1]; 192 h, read-out: Test B disease control rating) [%] | pest or weed control at 50 ppm (Phakopsora pachyrhizi; 216 h, read-out: Test D disease control rating) [%] | pest or weed control at 50 ppm (Botrytis cinerea; 120 h, read-out: Test E disease control rating) [%] | pest or weed control at 50 ppm (Alternaria solani; 120 h, read-out: Test F disease control rating) [%] | Test B disease control rating [1] [%] | Test C disease control rating [2] [%] | Test D disease control rating (Phakopsora pachyrhizi) [%] | Test E disease control rating (Botrytis cinerea) [%] | Test F disease control rating (Alternaria solani) [%] | Test A disease control rating (Septoria tritici) [%]
Cc1nn(C)c(N(C)c2c(F)cccc2[N+](=O)[O-])c1-c1ccc(F)cc1Cl [Compound 172] | 100 | 100 | 0 | 99 | 40 |  |  |  |  |  | 
CCc1ccc(Nc2c(-c3ccc(F)cc3Cl)c(C)nn2C)c([N+](=O)[O-])c1 [compound 6] |  |  |  |  |  | 74 | 27 | 0 | 55 | 0 | 
Cc1nn(C)c(Nc2c([N+](=O)[O-])ccc(F)c2F)c1-c1ccc(F)cc1Cl [compound 7] |  |  |  |  |  | 99 | 94 | 96 | 99 | 89 | 100
Cc1nn(C)c(Nc2c(Cl)cc(Br)cc2[N+](=O)[O-])c1-c1ccc(F)cc1Cl [compound 8] |  |  |  |  |  | 99 | 92 | 73 | 99 | 73 | 99
Cc1nn(C)c(Nc2c(F)cc(F)cc2[N+](=O)[O-])c1-c1ccc(Cl)cc1Cl [compound 9] |  |  |  |  |  | 100 | 97 | 0 | 97 | 99 | 100
Cc1nn(C)c(Nc2c(Cl)cc(F)cc2[N+](=O)[O-])c1-c1ccc(Cl)cc1Cl [compound 10] |  |  |  |  |  | 99 | 48 | 0 | 68 | 9 | 100
Cc1nn(C)c(Nc2c(F)cc(Cl)cc2[N+](=O)[O-])c1-c1ccc(Cl)cc1Cl [compound 11] |  |  |  |  |  | 98 | 97 | 0 | 98 | 99 | 100
Cc1nn(C)c(Nc2c(F)cccc2[N+](=O)[O-])c1-c1ccc(Cl)cc1F [compound 12] |  |  |  |  |  | 99 | 81 | 0 | 97 | 53 | 100
Cc1nn(C)c(Nc2c(F)cc(F)cc2[N+](=O)[O-])c1-c1ccc(Cl)cc1F [compound 13] |  |  |  |  |  | 99 | 97 | 19 | 68 | 89 | 100
Cc1ccc(Nc2c(-c3ccc(C#N)cc3Cl)c(C)nn2C)c([N+](=O)[O-])c1 [compound 14] |  |  |  |  |  | 97 | 83 | 48 | 96 | 83 | 100
Cc1cc(Cl)c(Nc2c(-c3ccc(F)cc3F)c(C)nn2C)c([N+](=O)[O-])c1 [compound 15] |  |  |  |  |  | 100 | 98 | 61 | 99 | 53 | 100
CCc1nn(C)c(Nc2c(Cl)cc(C)cc2[N+](=O)[O-])c1-c1ccc(F)cc1F [compound 16] |  |  |  |  |  | 99 | 98 | 50 | 99 | 0 | 100
CCc1nn(C)c(Nc2c(Cl)cccc2[N+](=O)[O-])c1-c1ccc(F)cc1F [compound 17] |  |  |  |  |  | 92 | 94 | 0 | 99 | 9 | 100
Cc1nn(C)c(Nc2ccc(F)cc2[N+](=O)[O-])c1-c1ccc(F)cc1Br [compound 20] |  |  |  |  |  | 89 | 92 | 0 | 99 | 26 | 100
Cc1nn(C)c(Nc2ccc(Br)cc2[N+](=O)[O-])c1-c1ccc(F)cc1Br [compound 21] |  |  |  |  |  | 86 | 84 | 0 | 95 | 17 | 100
Cc1nn(C)c(Nc2ccc(Cl)cc2[N+](=O)[O-])c1-c1c(F)cccc1Cl [compound 22] |  |  |  |  |  | 93 | 97 | 0 | 99 | 64 | 100
Cc1cc(Cl)c(Nc2c(-c3c(F)cccc3Cl)c(C)nn2C)c([N+](=O)[O-])c1 [compound 24] |  |  |  |  |  | 89 | 0 | 0 | 97 | 0 | 100
Cc1nn(C)c(Nc2c(F)cccc2[N+](=O)[O-])c1-c1c(F)cccc1Cl [compound 25] |  |  |  |  |  | 100 | 99 | 98 | 100 | 98 | 100
Cc1ccc(Nc2c(-c3ccc(F)cc3Cl)c(C)nn2C)c([N+](=O)[O-])c1 [compound 26] |  |  |  |  |  | 99 | 94 | 77 | 100 | 68 | 100
COc1ccc(Nc2c(-c3c(F)cccc3F)c(C)nn2C)c([N+](=O)[O-])c1 [compound 87] |  |  |  |  |  | 99 | 98 | 0 | 98 | 93 | 
COc1ccc(Nc2c(-c3ccc(F)cc3F)c(C)nn2C)c([N+](=O)[O-])c1 [compound 88] |  |  |  |  |  | 97 | 84 | 0 | 99 | 9 | 
COc1ccc(Nc2c(-c3c(F)cc(F)cc3Cl)c(C)nn2C)c([N+](=O)[O-])c1 [compound 89] |  |  |  |  |  | 100 | 99 | 80 | 99 | 99 | 
Cc1ccc(Nc2c(-c3c(F)cc(F)cc3Cl)c(C)nn2C)c([N+](=O)[O-])c1 [compound 106] |  |  |  |  |  | 100 | 98 | 0 | 99 | 68 | 
Cc1ccc(Nc2c(-c3ccc(F)cc3F)c(C)nn2C)c([N+](=O)[O-])c1 [compound 107] |  |  |  |  |  | 91 | 61 | 0 | 98 | 0 | 
